The values below come from patent US4532255A, “Amidine compounds and anticomplement agent comprising same” (Torii & Co., Ltd., priority 1980, dated 1985).

In data set [1] the test system is Kallikrein. The data set can be described thus: Anti-kallikrein activity (hydrolysis of TAME). It counts as biochemical. The settings on record: at 1×10^-5 M.
The next data set has as its target T1, Trypsin (Bos taurus, UniProt P00760).
T1 sequence (P00760 24-246): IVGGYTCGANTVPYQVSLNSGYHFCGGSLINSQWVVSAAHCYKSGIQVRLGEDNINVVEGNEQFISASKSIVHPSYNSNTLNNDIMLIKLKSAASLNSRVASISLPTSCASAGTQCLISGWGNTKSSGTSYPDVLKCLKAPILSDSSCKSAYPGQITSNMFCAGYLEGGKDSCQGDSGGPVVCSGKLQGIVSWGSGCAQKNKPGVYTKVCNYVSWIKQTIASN
Briefly: Anti-trypsin activity (hydrolysis of TAME). As to conditions: molar concentration inhibiting 50% of TAME hydrolysis; read-out: Trypsin ID50. It counts as biochemical. The method, then:
(§1) The anti-trypsin, anti-plasmin, anti-kallikrein and anti-thrombin activities were determined according to the method of Muramatsu et al. [M. Muramatsu, T. Onishi, S. Makino, Y. Hayashi and S. Fujii, J. of Biochem., 58, 214 (1965)]. […] The compound No. corresponds to the compound number shown in Examples.

A further data set addresses Plasmin (Homo sapiens, UniProt P00747). The data set can be described thus: Anti-plasmin activity (hydrolysis of TAME). The settings on record: for IC50: molar concentration inhibiting 50% of TAME hydrolysis, read-out: Plasmin ID50. It counts as biochemical. The method, then:
as §1

Another data set concerns the target Thrombin (Homo sapiens, UniProt P00734). Briefly: biochemical. As to conditions: for inhibition at 10 µM: at 1×10^-5 M, read-out: Thrombin percentage inhibition; for IC50: molar concentration inhibiting 50% of TAME hydrolysis, read-out: Thrombin ID50.
The subject of data set [2] is complement mediated hemolysis. Briefly: Inhibition of complement mediated hemolysis. It counts as cell-based.
Procedure: The principle of this method is based on the fact that hemolysis is caused by the activation of complement, when the latter is added to a complex (immune complex) of erythrocytes and the antibody thereof. The degree of hemolysis varies in proportion to the amount of complement added. Therefore, when a known amount of complement admixed with a C1 esterase inhibitor is used, the hemolysis must be suppressed in proportion to the inhibitory activity.
In another data set the target is T2, C1r (Homo sapiens, UniProt P00736).
T2 sequence (P00736 464-705 limits assumed): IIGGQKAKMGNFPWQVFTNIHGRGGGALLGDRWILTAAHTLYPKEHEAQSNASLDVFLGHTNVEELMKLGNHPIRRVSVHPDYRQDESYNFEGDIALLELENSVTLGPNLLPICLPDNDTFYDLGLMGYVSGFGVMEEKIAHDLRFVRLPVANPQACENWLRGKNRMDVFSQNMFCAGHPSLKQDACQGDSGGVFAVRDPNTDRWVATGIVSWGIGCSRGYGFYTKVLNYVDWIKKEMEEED
T2 sequence (P00736 18-463 partner limits assumed): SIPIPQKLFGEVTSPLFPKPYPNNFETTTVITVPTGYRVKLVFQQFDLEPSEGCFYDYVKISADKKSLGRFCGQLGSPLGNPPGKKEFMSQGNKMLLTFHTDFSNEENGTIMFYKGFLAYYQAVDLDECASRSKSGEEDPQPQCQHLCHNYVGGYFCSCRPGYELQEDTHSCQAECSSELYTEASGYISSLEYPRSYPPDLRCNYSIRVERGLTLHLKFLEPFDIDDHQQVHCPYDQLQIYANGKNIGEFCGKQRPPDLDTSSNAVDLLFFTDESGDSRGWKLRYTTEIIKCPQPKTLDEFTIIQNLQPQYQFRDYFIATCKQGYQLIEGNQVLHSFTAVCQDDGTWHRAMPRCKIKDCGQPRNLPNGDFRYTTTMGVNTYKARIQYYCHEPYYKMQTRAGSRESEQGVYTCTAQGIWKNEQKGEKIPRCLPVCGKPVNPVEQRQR
The data set can be described thus: Anti-C1 esterase (C1r) activity (hydrolysis of AAME). It counts as biochemical. The settings on record: AAME hydrolysis; read-out: Anti-C1 activity, C1r ID50. As to the method: The anti-Cl esterase ([…]) activity was determined according to the method of Okamura et al. [K. Okamura, M. Muramatsu and S. Fujii, Biochem. Biophys.

Another data set has as its target T3, C1s (Homo sapiens, UniProt P09871).
T3 sequence (P09871 438-688 limits assumed): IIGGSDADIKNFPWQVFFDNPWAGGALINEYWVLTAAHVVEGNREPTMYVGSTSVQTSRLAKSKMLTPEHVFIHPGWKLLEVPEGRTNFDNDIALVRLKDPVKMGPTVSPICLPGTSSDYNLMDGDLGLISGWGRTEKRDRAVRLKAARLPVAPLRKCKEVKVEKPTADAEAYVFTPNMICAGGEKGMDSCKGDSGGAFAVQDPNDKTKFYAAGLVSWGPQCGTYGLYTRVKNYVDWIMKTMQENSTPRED
T3 sequence (P09871 16-437 partner limits assumed): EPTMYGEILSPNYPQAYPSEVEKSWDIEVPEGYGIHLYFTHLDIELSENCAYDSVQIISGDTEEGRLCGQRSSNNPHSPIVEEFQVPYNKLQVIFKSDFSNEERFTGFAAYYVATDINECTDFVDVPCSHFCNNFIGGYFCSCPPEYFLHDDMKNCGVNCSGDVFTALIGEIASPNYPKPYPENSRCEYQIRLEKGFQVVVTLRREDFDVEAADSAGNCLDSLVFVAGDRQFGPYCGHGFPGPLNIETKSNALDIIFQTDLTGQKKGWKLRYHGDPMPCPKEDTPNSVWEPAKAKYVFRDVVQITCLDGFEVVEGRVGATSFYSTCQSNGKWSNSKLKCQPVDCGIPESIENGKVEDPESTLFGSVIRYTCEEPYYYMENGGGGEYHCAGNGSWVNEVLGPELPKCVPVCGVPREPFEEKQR
The data set can be described thus: biochemical. The settings on record: ATEE hydrolysis; read-out: Anti-C1 activity, C1s ID50. As to the method:
The anti-Cl esterase (Clr, Cls) activity was determined according to the method of Okamura et al. [K. Okamura, M. Muramatsu and S. Fujii, Biochem. Biophys. […] The figures in Table 2 have the following meanings:
Cls: Molar concentration of the test compound which inhibits 50% of the ability of Cls to hydrolyse ATEE (acetyltyrosin ethyl ester).

In a further data set the test system is Forssman shock. The data set can be described thus: Forssman shock (survival time after hemolysin). The settings on record: 5 minutes before hemolysin. It counts as in vivo, Male Hartlay guinea pig. The source says: Quite different from other animals, guinea pig has on the surface of its organs a specific antigen called Forssman antigen which specifically reacts with the antibody of sheep erythrocyte. Forssman shock is based on the above principle and is a shock caused by the administration of antibody of sheep erythrocyte to a guinea pig. The Forssman shock was investigated in detail by many researchers and it was definitely shown that this shock is a model case where the complement plays the principal part and that the shock is associated with a classical pathway in which the complement system is activated progressively starting from C1. Since the participation of complement in autoimmune diseases has been established, the Forssman shock can be said to be a useful means for testing a drug for autoimmune diseases. A drug effective for the treatment of Forssman shock is useful as a drug of autoimmune diseases. [Anti-trypsin, anti-plasmin, anti-kallikrein and anti-thrombin activities]
The experiment was performed according to the method of I. G. Offerness et al. [Biochem. Pharmacol., 27 (14), 1873-1878 (1978)]. Male Hartlay guinea pig of about 300 g in body weight was used. Each guinea pig of the control group was administered intravenously with 0.5 ml (minimum dose to cause the shock) of hemolysin (commercial hemolysin, 5,000 U as assayed by the method of Ogata) and the time elapsed until death was observed. For the test group, each guinea pig was administered intravenously with the test compound 5 minutes before the administration of hemolysin and the time (second) elapsed until death was observed.

Data set [3] relates to Kallikrein. The data set can be described thus: Anti-kallikrein activity (hydrolysis of TAME). It counts as biochemical. As to conditions: molar concentration inhibiting 50% of TAME hydrolysis; read-out: Kallikrein ID50. The method, then: The anti-trypsin, anti-plasmin, anti-kallikrein and anti-thrombin activities were determined according to the method of Muramatsu et al. [M. Muramatsu, T. Onishi, S. Makino, Y. Hayashi and S. Fujii, J. of Biochem., 58, 214 (1965)]. The data summarized in Table 1 are expressed in terms of molar concentration (ID50) of the test compound which inhibits 50% of the activity of each enzyme to hydrolyze TAME (tosylalginine methyl ester). The compound No. corresponds to the compound number shown in Examples.

A short description of data set [4]: Toxicity, median lethal dose (LD50). The settings on record: in vivo.

“And” between values parts separate entries of the source, which are not always exact repeats. Identical values can stand only once. Some results are limits rather than exact numbers.

Sequence of Plasmin (P00747 581-810 limits assumed, species assumed): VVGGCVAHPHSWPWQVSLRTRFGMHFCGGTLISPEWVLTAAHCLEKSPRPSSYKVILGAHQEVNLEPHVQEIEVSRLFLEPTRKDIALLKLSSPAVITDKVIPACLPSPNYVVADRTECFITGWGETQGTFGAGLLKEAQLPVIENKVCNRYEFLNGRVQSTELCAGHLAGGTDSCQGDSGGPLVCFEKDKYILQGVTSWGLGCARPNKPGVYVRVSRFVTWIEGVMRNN
Sequence of Plasmin (P00747 97-580 partner limits assumed, species assumed): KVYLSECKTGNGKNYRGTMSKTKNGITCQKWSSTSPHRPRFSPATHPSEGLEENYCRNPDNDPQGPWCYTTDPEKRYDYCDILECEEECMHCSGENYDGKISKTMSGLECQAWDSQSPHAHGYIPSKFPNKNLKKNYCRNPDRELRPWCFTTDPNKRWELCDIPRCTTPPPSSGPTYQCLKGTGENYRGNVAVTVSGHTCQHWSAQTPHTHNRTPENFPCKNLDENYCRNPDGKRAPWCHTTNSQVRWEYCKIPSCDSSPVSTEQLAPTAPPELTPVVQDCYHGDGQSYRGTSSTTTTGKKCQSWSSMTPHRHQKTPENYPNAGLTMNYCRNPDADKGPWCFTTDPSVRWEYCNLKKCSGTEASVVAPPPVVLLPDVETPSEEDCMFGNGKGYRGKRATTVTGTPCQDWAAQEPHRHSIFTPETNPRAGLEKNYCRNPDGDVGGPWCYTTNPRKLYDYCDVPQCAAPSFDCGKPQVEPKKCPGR

For the molecule `CN(C(=N)N)c1ccc(C(=O)Oc2ccc3cc(C(=N)N)ccc3c2)cc1` [Compound 28, 6-amidino-2-naphthyl 4-(Nα-methyl)guanidinobenzoate], the Kallikrein percentage inhibition in the data set on Kallikrein [1] was found to be 20%. Moreover, the IC50 on Trypsin was determined as 600 nM; on Plasmin, 600 nM; on C1r it was 3000 nM; on C1s it was 300 nM. For the same molecule, the inhibition (usually the drop in the measured response relative to a control, in per cent) at 10 µM at Thrombin stood at 17%. The “Inhibition of complement mediated hemolysis (%)” value (“Inhibition … (%)” for short) in data set [2] (1 × 10^-4) is listed as 100%; in data set [2] (1 × 10^-5), 99%; in [2] (1 × 10^-6), 60%; in [2] (1 × 10^-7) it was 6%.

As for `Cc1cccc(C(=O)Oc2ccc3cc(C(=N)N)ccc3c2)c1` [Compound 3, 6-amidino-2-naphthyl 3-methylbenzoate], the Kallikrein percentage inhibition in the data set on Kallikrein [1] came to 38%. Moreover, the IC50 was 2000 nM at Trypsin; 4000 nM on Plasmin; 4000 nM on Thrombin; 1000 nM on C1r; 2000 nM on C1s. Also, the “Inhibition … (%)” value was 97% in data set [2] (1 × 10^-4), 60% in data set [2] (1 × 10^-5), 8% in [2] (1 × 10^-6) and 11% in data set [2] (1 × 10^-7).

As to `N=C(N)c1ccc2cc(OC(=O)c3cccc(C(F)(F)F)c3)ccc2c1` [Compound 33], the Kallikrein percentage inhibition with Kallikrein [1] is 13%. For the same molecule, the IC50 came to 8000 nM on Trypsin, 3000 nM on Plasmin, 1000 nM on C1r and 3000 nM on C1s. For the same molecule, the inhibition at 10 µM at Thrombin came out at 40%. Besides, the “Inhibition … (%)” value is reported as 75% in data set [2] (1 × 10^-4), 39% in data set [2] (1 × 10^-5), 7% in data set [2] (1 × 10^-6) and 22% in [2] (1 × 10^-7).

On to `N=C(N)c1ccc2cc(OC(=O)c3ccc4c(c3)OCO4)ccc2c1` [Compound 10], for which, in the data set on Kallikrein [1], the Kallikrein percentage inhibition came to 31%. Also, the IC50 at Trypsin is 200 nM; at Plasmin, 50000 nM; on Thrombin, 4000 nM; at C1r, 200 nM; at C1s it was 200 nM. Further, the “Inhibition … (%)” value in [2] (1 × 10^-4) amounted to 97%; in [2] (1 × 10^-5) it was 75%; in data set [2] (1 × 10^-6), 9%; in data set [2] (1 × 10^-7), 2%.

Take `CC(=O)c1ccc(C(=O)Oc2ccc3cc(C(=N)N)ccc3c2)cc1` [Compound 32]: in the data set with Kallikrein [1], the Kallikrein percentage inhibition is 26%. Moreover, the IC50 at Trypsin was determined as 2000 nM; on Plasmin it was 3000 nM; on Thrombin, 4000 nM; at C1r, 2000 nM; at C1s, 3000 nM. The “Inhibition … (%)” value in [2] (1 × 10^-4) was 93%; in [2] (1 × 10^-5), 97%; in data set [2] (1 × 10^-6), 67%; in data set [2] (1 × 10^-7), 22%.

In turn, `N=C(N)c1ccc2cc(OC(=O)c3ccc(O)cc3)ccc2c1` [Compound 11, 6-amidino-2-naphthyl 4-hydroxybenzoate] registered a Kallikrein percentage inhibition in the data set with Kallikrein [1] of 21%. Moreover, the IC50 on Trypsin turned out to be 300 nM; on Thrombin, 7000 nM; on C1r it was 100 nM; at C1s, 200 nM. Further, the inhibition at 10 µM on Plasmin (at 1×10^-5 M, read-out: Plasmin percentage inhibition) worked out at 36%. The “Inhibition … (%)” value in data set [2] (1 × 10^-4) turned out to be 96%; in data set [2] (1 × 10^-5) it was 56%; in data set [2] (1 × 10^-6), 6%; in [2] (1 × 10^-7), 13%.

Consider `N=C(N)Nc1ccc(C(=O)Oc2ccc3cc(C(=N)N)ccc3c2)cc1` [Compound 27, 6-amidino-2-naphthyl 4-guanidinobenzoate], for which the “Time elapsed until death, individual animal” value is 732 s and 740 s and 723 s and 724 s and 590 s and 410 s in the data set on Forssman shock (0.5 mg/kg intravenous); 740 sec. and 820 sec. and Survival and 670 sec. and 1325 sec in the data set on Forssman shock (1.0 mg/kg intravenous). For the same molecule, the “Time elapsed until death, average” value in the data set with Forssman shock (0.5 mg/kg intravenous, control average 465) is 653 s; in the data set with Forssman shock (1.0 mg/kg intravenous, control average 465 (No. 27), 428 (No. 22)), above 889 s. In addition, the IC50 with Kallikrein [3] is 5000 nM; at Thrombin, 3000 nM; on C1r it was 100 nM; at C1s it was 50 nM. The LD50 – broadly, the dose at which mortality reaches 50% – in data set [4] (ip) was determined as 200 mg/kg; in data set [4] (po) it was 2500 mg/kg. Besides, the “Inhibition … (%)” value in data set [2] (1 × 10^-4) came out at 100%; in data set [2] (1 × 10^-5), 100%; in data set [2] (1 × 10^-6) it was 97%; in data set [2] (1 × 10^-7) it was 44%.
